# Measurements as given in patent US12692269B2, “Therapeutic compounds” (Genentech, Inc., priority 2019, dated 2026).
# Experiments:
# Assay type in all cases: binding
# TEAD1 YAP50-100 = TEAD1 YAP50-100 (Homo sapiens, UniProt P28347); test: TEAD1-YAP HTRF (TR-FRET) protein-protein interaction assay; conditions: TEAD1, YAP peptide 50-100, HTRF; for EC50: read-out: TEAD1 YAP50-100 HTRF combined: EC50
# Outline: (§1)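 Compounds were given 30 min to bind Eu anti-His-labelled TEAD (His-tagged, aa 217-447) before streptavidin-XL665-coupled biotin-YAP 50-100 or biotin-TAZ 13-57 peptide went in for a further 60 min at room temperature. Loss of 665/615 nm TR-FRET ratio gave IC50/EC50 via four-parameter curve fit.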
# [1] = target: TEAD4 TAZ (amino acids 13-57) (Homo sapiens, UniProt Q15561); test: TEAD4-TAZ HTRF (TR-FRET) protein-protein interaction assay; conditions: for TEAD4 TAZ HTRF combined: Max % Inhibition: TEAD4, TAZ peptide; for EC50: TEAD4-TAZ HTRF, TR-FRET 665 nm/615 nm, read-out: TEAD4 TAZ HTRF combined: EC50
# Outline: as §1
# TEAD4 YAP50-100 = TEAD4 YAP50-100 (Homo sapiens, UniProt Q15561); test: TEAD4-YAP HTRF (TR-FRET) protein-protein interaction assay; conditions: TEAD4, YAP peptide 50-100, HTRF; for EC50: read-out: TEAD4 YAP50-100 HTRF combined: EC50
# Outline: as §1
# TEAD3 YAP50-100 = TEAD3 YAP50-100 (Homo sapiens, UniProt Q99594); test: TEAD3-YAP HTRF (TR-FRET) protein-protein interaction assay; conditions: TEAD3, YAP peptide 50-100, HTRF; for EC50: read-out: TEAD3 YAP50-100 HTRF combined: EC50
# Outline: as §1
# TEAD2 YAP50-100 = TEAD2 YAP50-100 (Homo sapiens, UniProt Q15562); test: TEAD2-YAP HTRF (TR-FRET) protein-protein interaction assay; conditions: TEAD2, YAP peptide 50-100, HTRF; for EC50: read-out: TEAD2 YAP50-100 HTRF combined: EC50
# Outline: as §1
# [2] = target: TEAD3 TAZ (amino acids 13-57) (Homo sapiens, UniProt Q99594); test: TEAD3-TAZ HTRF (TR-FRET) protein-protein interaction assay; conditions: for TEAD3 TAZ HTRF combined: Max % Inhibition: TEAD3, TAZ peptide; for EC50: TEAD3-TAZ HTRF, TR-FRET 665 nm/615 nm, read-out: TEAD3 TAZ HTRF combined: EC50
# Outline: as §1
# [3] = target: TEAD1 TAZ (amino acids 13-57) (Homo sapiens, UniProt P28347); test: TEAD1-TAZ HTRF (TR-FRET) protein-protein interaction assay; conditions: for TEAD1 TAZ HTRF combined: Max % Inhibition: TEAD1, TAZ peptide; for EC50: TEAD1-TAZ HTRF, TR-FRET 665 nm/615 nm, read-out: TEAD1 TAZ HTRF combined: EC50
# Outline: as §1
# [4] = target: TEAD2 TAZ (amino acids 13-57) (Homo sapiens, UniProt Q15562); test: TEAD2-TAZ HTRF (TR-FRET) protein-protein interaction assay; conditions: for TEAD2 TAZ HTRF combined: Max % Inhibition: TEAD2, TAZ peptide; for EC50: TEAD2-TAZ HTRF, TR-FRET 665 nm/615 nm, read-out: TEAD2 TAZ HTRF combined: EC50
# Outline: as §1
# Sequence of TEAD1 YAP50-100 (P28347 167-426 limits assumed): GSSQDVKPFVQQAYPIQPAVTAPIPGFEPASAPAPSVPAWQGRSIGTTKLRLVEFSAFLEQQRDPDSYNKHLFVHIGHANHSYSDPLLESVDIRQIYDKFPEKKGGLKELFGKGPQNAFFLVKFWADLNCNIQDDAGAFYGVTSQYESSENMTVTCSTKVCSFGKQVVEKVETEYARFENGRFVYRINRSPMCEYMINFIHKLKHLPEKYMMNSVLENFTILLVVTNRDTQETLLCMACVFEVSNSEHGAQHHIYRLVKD
# Sequence of TEAD1 TAZ (amino acids 13-57) (P28347 167-426 limits assumed): as above
# Sequence of TEAD2 YAP50-100 (Q15562 217-447): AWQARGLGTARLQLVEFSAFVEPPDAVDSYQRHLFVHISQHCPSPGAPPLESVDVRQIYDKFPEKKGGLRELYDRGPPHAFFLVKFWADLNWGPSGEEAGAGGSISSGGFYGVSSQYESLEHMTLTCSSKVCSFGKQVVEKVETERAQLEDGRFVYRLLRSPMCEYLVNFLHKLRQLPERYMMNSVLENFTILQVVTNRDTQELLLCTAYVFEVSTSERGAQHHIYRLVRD
# Sequence of TEAD2 TAZ (amino acids 13-57) (Q15562 217-447): as above
# Sequence of TEAD3 TAZ (amino acids 13-57) (Q99594 173-435 limits assumed): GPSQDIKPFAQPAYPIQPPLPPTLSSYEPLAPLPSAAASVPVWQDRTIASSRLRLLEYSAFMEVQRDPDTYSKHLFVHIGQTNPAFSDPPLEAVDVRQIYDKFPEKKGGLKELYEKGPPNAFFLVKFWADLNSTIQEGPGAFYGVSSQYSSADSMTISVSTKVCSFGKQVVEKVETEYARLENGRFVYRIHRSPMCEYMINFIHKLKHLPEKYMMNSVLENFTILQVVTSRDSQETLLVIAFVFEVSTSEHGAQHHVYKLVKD
# Sequence of TEAD3 YAP50-100 (Q99594 173-435 limits assumed): as above
# Sequence of TEAD4 TAZ (amino acids 13-57) (Q15561 217-434 limits assumed): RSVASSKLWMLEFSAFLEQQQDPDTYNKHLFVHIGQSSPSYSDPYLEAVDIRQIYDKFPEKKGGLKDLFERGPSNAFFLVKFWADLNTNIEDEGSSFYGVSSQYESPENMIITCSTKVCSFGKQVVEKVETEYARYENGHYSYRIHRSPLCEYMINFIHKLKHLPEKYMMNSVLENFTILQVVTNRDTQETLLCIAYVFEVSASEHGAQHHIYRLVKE
# Sequence of TEAD4 YAP50-100 (Q15561 217-434 limits assumed): as above
smiles,measurement,setting,value
"N#Cc1nccnc1-c1nn2c(=O)cc(-c3ccc(C4CCCCC4)cc3)[nH]c2c1C(=O)N1CC(CF)C1 [Compound 8, 3-(5-(4-Cyclohexylphenyl)-3-(3-(fluoromethyl)azetidine-1-carbonyl)-7-oxo-4,7-dihydropyrazolo[1,5-a]pyimidin-2-yl)pyrazine-2-carbonitrile]",TEAD1 YAP50-100 HTRF combined: Max % Inhibition,TEAD1 YAP50-100,77.0%
same,EC50,TEAD1 YAP50-100,80 nM
same,TEAD4 TAZ HTRF combined: Max % Inhibition,[1],44.5%
same,EC50,[1],370 nM
same,TEAD4 YAP50-100 HTRF combined: Max % Inhibition,TEAD4 YAP50-100,45.5%
same,EC50,TEAD4 YAP50-100,470 nM
same,TEAD3 YAP50-100 HTRF combined: Max % Inhibition,TEAD3 YAP50-100,69.5%
same,EC50,TEAD3 YAP50-100,110 nM
same,TEAD2 YAP50-100 HTRF combined: Max % Inhibition,TEAD2 YAP50-100,51.0%
same,EC50,TEAD2 YAP50-100,20 nM
same,TEAD3 TAZ HTRF combined: Max % Inhibition,[2],61.0%
same,EC50,[2],120 nM
same,TEAD1 TAZ HTRF combined: Max % Inhibition,[3],71.0%
same,EC50,[3],110 nM
same,TEAD2 TAZ HTRF combined: Max % Inhibition,[4],54.0%
same,EC50,[4],20 nM
"CN(C)C(=O)c1nn2c(=O)cc(-c3ccc(C4CCCCC4)cc3)[nH]c2c1C(=O)N1CC(CF)C1 [Compound 1, 5-(4-Cyclohexylphenyl)-3-(3-(fluoromethyl)azetidine-1-carbonyl)-N,N-dimethyl-7-oxo-4,7-dihydropyrazolo[1,5-a]pyrimidine-2-carboxamide]",TEAD1 YAP50-100 HTRF combined: Max % Inhibition,TEAD1 YAP50-100,70.0%
same,EC50,TEAD1 YAP50-100,90 nM
same,TEAD4 TAZ HTRF combined: Max % Inhibition,[1],40.3%
same,EC50,[1],600 nM
same,TEAD4 YAP50-100 HTRF combined: Max % Inhibition,TEAD4 YAP50-100,55.3%
same,EC50,TEAD4 YAP50-100,330 nM
same,TEAD3 YAP50-100 HTRF combined: Max % Inhibition,TEAD3 YAP50-100,75.3%
same,EC50,TEAD3 YAP50-100,110 nM
same,TEAD2 YAP50-100 HTRF combined: Max % Inhibition,TEAD2 YAP50-100,74.4%
same,EC50,TEAD2 YAP50-100,10 nM
same,TEAD3 TAZ HTRF combined: Max % Inhibition,[2],63.0%
same,EC50,[2],170 nM
same,TEAD1 TAZ HTRF combined: Max % Inhibition,[3],61.2%
same,EC50,[3],90 nM
same,TEAD2 TAZ HTRF combined: Max % Inhibition,[4],69.2%
same,EC50,[4],10 nM
"CC1CCN1C(=O)c1nn2c(=O)cc(-c3ccc(C4CCCCC4)cc3)[nH]c2c1C(=O)N1CC(CF)C1 (single isomer, unassigned) [Enantiomer B, Example 33, 5-(4-Cyclohexylphenyl)-3-(3-(fluoromethyl)azetidine-1-carbonyl)-2-(2-methylazetidine-1-carbonyl)pyrazolo[1,5-a]pyrimidin-7(4H)-one]",TEAD1 YAP50-100 HTRF combined: Max % Inhibition,TEAD1 YAP50-100,72.0%
same,EC50,TEAD1 YAP50-100,80 nM
same,TEAD4 TAZ HTRF combined: Max % Inhibition,[1],37.5%
same,EC50,[1],570 nM
same,TEAD4 YAP50-100 HTRF combined: Max % Inhibition,TEAD4 YAP50-100,49.0%
same,EC50,TEAD4 YAP50-100,670 nM
same,TEAD3 YAP50-100 HTRF combined: Max % Inhibition,TEAD3 YAP50-100,69.0%
same,EC50,TEAD3 YAP50-100,150 nM
same,TEAD2 YAP50-100 HTRF combined: Max % Inhibition,TEAD2 YAP50-100,72.0%
same,EC50,TEAD2 YAP50-100,20 nM
same,TEAD3 TAZ HTRF combined: Max % Inhibition,[2],58.5%
same,EC50,[2],200 nM
same,TEAD1 TAZ HTRF combined: Max % Inhibition,[3],64.0%
same,EC50,[3],100 nM
same,TEAD2 TAZ HTRF combined: Max % Inhibition,[4],68.0%
same,EC50,[4],20 nM
"Cc1nccnc1-c1nn2c(=O)cc(-c3ccc(C4CCCCC4)cc3)[nH]c2c1C(=O)N1CC(CF)C1 [Compound 27, 5-(4-Cyclohexylphenyl)-3-(3-(fluoromethyl)azetidine-1-carbonyl)-2-(3-methylpyrazin-2-yl)pyrazolo[1,5-a]pyrimidin-7(4H)-one]",TEAD1 YAP50-100 HTRF combined: Max % Inhibition,TEAD1 YAP50-100,75.0%
same,EC50,TEAD1 YAP50-100,30 nM
same,TEAD4 TAZ HTRF combined: Max % Inhibition,[1],53.1%
same,EC50,[1],30 nM
same,TEAD4 YAP50-100 HTRF combined: Max % Inhibition,TEAD4 YAP50-100,54.1%
same,EC50,TEAD4 YAP50-100,30 nM
same,TEAD3 YAP50-100 HTRF combined: Max % Inhibition,TEAD3 YAP50-100,74.6%
same,EC50,TEAD3 YAP50-100,100 nM
same,TEAD2 YAP50-100 HTRF combined: Max % Inhibition,TEAD2 YAP50-100,68.6%
same,EC50,TEAD2 YAP50-100,10 nM
same,TEAD3 TAZ HTRF combined: Max % Inhibition,[2],64.9%
same,EC50,[2],100 nM
same,TEAD1 TAZ HTRF combined: Max % Inhibition,[3],74.5%
same,EC50,[3],50 nM
same,TEAD2 TAZ HTRF combined: Max % Inhibition,[4],67.9%
same,EC50,[4],10 nM
"C[C@@H]1[C@H](CF)CN1C(=O)c1c(-c2ncccn2)nn2c(=O)cc(-c3ccc(CC4CCCC4)cc3)[nH]c12 (single isomer, unassigned) [Isomer B, Example 43]",TEAD1 YAP50-100 HTRF combined: Max % Inhibition,TEAD1 YAP50-100,65.0%
same,EC50,TEAD1 YAP50-100,50 nM
same,TEAD4 TAZ HTRF combined: Max % Inhibition,[1],50.0%
same,EC50,[1],270 nM
same,TEAD4 YAP50-100 HTRF combined: Max % Inhibition,TEAD4 YAP50-100,51.0%
same,EC50,TEAD4 YAP50-100,370 nM
same,TEAD3 YAP50-100 HTRF combined: Max % Inhibition,TEAD3 YAP50-100,66.0%
same,EC50,TEAD3 YAP50-100,140 nM
same,TEAD2 YAP50-100 HTRF combined: Max % Inhibition,TEAD2 YAP50-100,73.0%
same,EC50,TEAD2 YAP50-100,20 nM
same,TEAD3 TAZ HTRF combined: Max % Inhibition,[2],65.5%
same,EC50,[2],150 nM
same,TEAD1 TAZ HTRF combined: Max % Inhibition,[3],60.0%
same,EC50,[3],50 nM
same,TEAD2 TAZ HTRF combined: Max % Inhibition,[4],71.5%
same,EC50,[4],20 nM
"O=C(c1c(C2CNCCO2)nn2c(=O)cc(-c3ccc(C4CCCCC4)cc3)[nH]c12)N1CC(CF)C1 (single isomer, unassigned) [Enantiomer B, Example 63, 5-(4-Cyclohexylphenyl)-3-[3-(fluoromethyl)azetidine-1-carbonyl]-2-morpholin-2-yl-4H-pyrazolo[1,5-a]pyrimidin-7-one]",TEAD1 YAP50-100 HTRF combined: Max % Inhibition,TEAD1 YAP50-100,62.0%
same,EC50,TEAD1 YAP50-100,90 nM
same,TEAD4 TAZ HTRF combined: Max % Inhibition,[1],28.0%
same,EC50,[1],590 nM
same,TEAD4 YAP50-100 HTRF combined: Max % Inhibition,TEAD4 YAP50-100,35.0%
same,EC50,TEAD4 YAP50-100,1090 nM
same,TEAD3 YAP50-100 HTRF combined: Max % Inhibition,TEAD3 YAP50-100,59.5%
same,EC50,TEAD3 YAP50-100,150 nM
same,TEAD2 YAP50-100 HTRF combined: Max % Inhibition,TEAD2 YAP50-100,62.5%
same,EC50,TEAD2 YAP50-100,40 nM
same,TEAD3 TAZ HTRF combined: Max % Inhibition,[2],52.0%
same,EC50,[2],160 nM
same,TEAD1 TAZ HTRF combined: Max % Inhibition,[3],52.0%
same,EC50,[3],140 nM
same,TEAD2 TAZ HTRF combined: Max % Inhibition,[4],65.0%
same,EC50,[4],30 nM
"O=C(c1c(-c2cnccn2)nn2c(=O)cc(-c3ccc(C4CCCCC4)cc3)[nH]c12)N1CC(CF)C1 [Compound 17, 5-(4-Cyclohexylphenyl)-3-(3-(fluoromethyl)azetidine-1-carbonyl)-2-(pyrazin-2-yl)pyrazolo[1,5-a]pyrimidin-7(4H)-one]",TEAD1 YAP50-100 HTRF combined: Max % Inhibition,TEAD1 YAP50-100,69.0%
same,EC50,TEAD1 YAP50-100,30 nM
same,TEAD4 TAZ HTRF combined: Max % Inhibition,[1],34.9%
same,EC50,[1],30 nM
same,TEAD4 YAP50-100 HTRF combined: Max % Inhibition,TEAD4 YAP50-100,42.0%
same,EC50,TEAD4 YAP50-100,40 nM
same,TEAD3 YAP50-100 HTRF combined: Max % Inhibition,TEAD3 YAP50-100,63.3%
same,EC50,TEAD3 YAP50-100,60 nM
same,TEAD2 YAP50-100 HTRF combined: Max % Inhibition,TEAD2 YAP50-100,61.6%
same,EC50,TEAD2 YAP50-100,10 nM
same,TEAD3 TAZ HTRF combined: Max % Inhibition,[2],53.9%
same,EC50,[2],60 nM
same,TEAD1 TAZ HTRF combined: Max % Inhibition,[3],60.6%
same,EC50,[3],40 nM
same,TEAD2 TAZ HTRF combined: Max % Inhibition,[4],60.9%
same,EC50,[4],10 nM
